Like-named read-outs stand apart in the source and are kept apart here.
How the values were obtained:
[1] = test system: MCR-1 positive Escherichia coli (E. coli DZ2-12R); experiment: Chessboard MIC test, MCR-1 positive E. coli; assay type: cell-based; conditions: for MIC: Escherichia coli; for antibacterial effect alone: summary for the strains of Tables 1 and 2; for reduction of the MIC value of polymyxin: combination with polymyxin, MCR-1 positive Escherichia coli
Experimental: (§1) The antibacterial activities of honokiol, magnolol, polymyxin and their combination against MCR-1 producing Escherichia coli (also referred to as MCR-1 positive Escherichia coli) and Klebsiella pneumoniae are tested by chessboard method in 96-well sterile microplates, the MIC values are determined, and the fractional inhibitory concentration (FIC) indexes are calculated. Specifically, FIC=MIC (polymyxin combined)/MIC (polymyxin alone)+MIC (honokiol/magnolol combined)/MIC (honokiol/magnolol alone).

[2] = test system: MCR-1 positive Klebsiella pneumoniae (K. pneumoniae ZJ02); experiment: Chessboard MIC test, MCR-1 positive K. pneumoniae; assay type: cell-based; conditions: for MIC: Klebsiella pneumoniae; for reduction of the MIC value of polymyxin: combination with polymyxin, MCR-1 positive Klebsiella pneumoniae
Experimental: as §1

[3] = test system: MCR-1 engineering bacteria E. coli BL21(DE3) (pET28a-mcr-1); experiment: Chessboard MIC test, MCR-1 engineering bacteria; assay type: cell-based, Escherichia coli; conditions: for MIC: Escherichia coli, read-out: MIC alone; for synergistic effect with polymyxin: combination with polymyxin, strain expressing MCR-1; for FIC: combined with polymyxin B
Experimental: as §1

[4] = test system: E. coli BL21(DE3) (pET28a); experiment: Chessboard MIC test, engineering strain not expressing MCR-1; assay type: cell-based, Escherichia coli; conditions: for MIC: Escherichia coli, read-out: MIC alone; for synergistic effect with polymyxin: combination with polymyxin, strain that does not express MCR-1; for FIC: combined with polymyxin B
[5] = test system: MCR-1 positive Escherichia coli isolate; experiment: Time-kill curve test; assay type: cell-based; conditions: 1×10^5 CFUs/mL
Experimental: An overnight culture of MCR-1 positive Escherichia coli isolate is taken and adjusted to 1×10^7 colony forming units per milliliter (CFUs/mL) for use. Sterile test tubes are taken and divided into 4 groups (including blank control group, 2 μg/mL polymyxin group B group, 16 μg/mL honokiol or 32 μg/mL magnolol group, and 16 μg/mL honokiol or 32 μg/mL magnolol combined with 2 μg/mL polymyxin B group), each group is marked for 1, 3, 5 and 7 hours. 1 mL of autoclaved Lysogeny broth (LB) medium is added into each of the test tubes, and then 10 microliters (μL) of adjusted bacterial solution are added into each of the test tubes so that the concentration of bacterial solution in each of the test tubes is 1×10^5 CFUs/mL. Among them, 2 μg/mL polymyxin group B group, 16 μg/mL honokiol or 32 μg/mL magnolol group, and 16 μg/mL honokiol or 32 μg/mL magnolol combined with 2 μg/mL polymyxin B group are added with the corresponding amount of antibiotics and inhibitors respectively. Immediately after mixing, the bacterial solution of the antibiotic-free control group is coated and counted as the CFU at 0 H. After that, the bacterial solution in the corresponding test tube is taken every 1, 3, 5 and 7 hours, and the plate is coated for counting, and the time-kill curves are drawn, as shown in FIG. 1 and FIG. 2.

[6] = test system: MCR-1 positive Klebsiella pneumoniae; experiment: Colony colonization experiment of mouse thigh muscle infection; assay type: in vivo; conditions: BALB/C mice, subcutaneous, every 8 hours for three times, 36 hours
Experimental: After BALB/C mice (female, about 20 […] (g)) are restrained, MCR-1 positive Klebsiella pneumoniae suspension (2×10^7 CFUs) is injected through the inner thigh to establish a mouse thigh muscle infection model.
After intramuscular injection of MCR-1 positive Klebsiella pneumoniae into the inner thigh of mice, 5 […] (mg/kg) (50 μL) of polymyxin B dissolved in sterile ultra-pure water (dd H2O), 50 mg/kg (50 μL) honokiol or magnolol dissolved in dimethyl sulfoxide (DMSO) solution, and 50 mg/kg of honokiol or magnolol combined with polymyxin B (5 mg/kg) are injected subcutaneously, while the positive control group is subcutaneously injected with 50 μL DMSO blank solvent. All groups of mice are administered subcutaneously every 8 hours for three times. After 36 hours of administration, the mice are sacrificed, and the thigh muscles are weighed, homogenized, diluted and counted.

[7] = combined with polymyxin B, E. coli DZ2-12R
[8] = combined with polymyxin B, K. pneumoniae ZJ02
[9] = E. coli BL21(DE3) (pET28a-mcr-1)
[10] = 50 mg/kg combined with polymyxin B (5 mg/kg)
[11] = alone (honokiol or magnolol 50 mg/kg, polymyxin B 5 mg/kg)

Molecule: C=CCc1ccc(O)c(-c2ccc(O)c(CC=C)c2)c1 [Honokiol, honokiol]
- MIC ([1]; read-out: MIC alone): > 512 µg/mL
- MIC ([1]; combined with polymyxin B, E. coli DZ2-12R, read-out: MIC co-application (honokiol/magnolol)): 32 µg/mL
- antibacterial effect alone ([1]; alone): no antibacterial effect
- reduction of the MIC value of polymyxin [1]: 8 fold
- FIC [1, 7]: 0.1875
- MIC ([2]; read-out: MIC alone): > 512 µg/mL
- MIC ([2]; combined with polymyxin B, K. pneumoniae ZJ02, read-out: MIC co-application (honokiol/magnolol)): 32 µg/mL
- reduction of the MIC value of polymyxin [2]: 16 fold
- FIC [2, 8]: 0.125
- MIC [3]: > 512 µg/mL
- synergistic effect with polymyxin [3]: obvious synergistic effect
- FIC [3, 9]: 0.125
- MIC [4]: > 512 µg/mL
- synergistic effect with polymyxin [4]: does not have any synergistic effect
- FIC ([4]; E. coli BL21(DE3) (pET28a)): 0.5625
- time to completely kill MCR-1 positive Escherichia coli ([5]; 16 μg/mL honokiol combined with 2 μg/mL polymyxin B): ≤ 1 h
- number of bacterial colonization in mouse thigh muscle [6, 10]: significantly reduced
- number of bacterial colonization in mouse thigh muscle [6, 11]: no significant effect

Molecule: C=CCc1ccc(O)c(-c2cc(CC=C)ccc2O)c1 [Magnolol, magnolol]
- MIC ([1]; read-out: MIC alone): > 512 µg/mL
- antibacterial effect alone ([1]; alone): no antibacterial effect
- reduction of the MIC value of polymyxin [1]: 4 fold
- FIC [1, 7]: 0.3125
- MIC ([2]; read-out: MIC alone): > 512 µg/mL
- reduction of the MIC value of polymyxin [2]: 4 fold
- FIC [2, 8]: 0.3125
- MIC [3]: > 512 µg/mL
- synergistic effect with polymyxin [3]: obvious synergistic effect
- FIC [3, 9]: 0.1875
- MIC [4]: > 512 µg/mL
- synergistic effect with polymyxin [4]: does not have any synergistic effect
- FIC ([4]; E. coli BL21(DE3) (pET28a)): 1.0625
- time to completely kill MCR-1 positive Escherichia coli ([5]; 32 μg/mL magnolol combined with 2 μg/mL polymyxin B): ≤ 3 h
- number of bacterial colonization in mouse thigh muscle [6, 10]: significantly reduced
- number of bacterial colonization in mouse thigh muscle [6, 11]: no significant effect

Molecule: Polymyxin B [reference compound]
- MIC alone ([1]; alone, E. coli DZ2-12R): 8 µg/mL
- MIC Polymyxin B co-application ([1]; polymyxin B combined with honokiol, E. coli DZ2-12R): 1 µg/mL
- MIC Polymyxin B co-application ([1]; polymyxin B combined with magnolol, E. coli DZ2-12R): 2 µg/mL
- MIC alone ([2]; alone, K. pneumoniae ZJ02): 32 µg/mL
- MIC Polymyxin B co-application ([2]; polymyxin B combined with honokiol, K. pneumoniae ZJ02): 2 µg/mL
- MIC Polymyxin B co-application ([2]; polymyxin B combined with magnolol, K. pneumoniae ZJ02): 8 µg/mL
- MIC alone ([3]; alone, E. coli BL21(DE3) (pET28a-mcr-1)): 8 µg/mL
- MIC Polymyxin B co-application ([3]; polymyxin B combined with honokiol, E. coli BL21(DE3) (pET28a-mcr-1)): 0.5 µg/mL
- MIC Polymyxin B co-application ([3]; polymyxin B combined with magnolol, E. coli BL21(DE3) (pET28a-mcr-1)): 1 µg/mL
- MIC alone ([4]; alone, E. coli BL21(DE3) (pET28a)): 1 µg/mL
- MIC Polymyxin B co-application ([4]; polymyxin B combined with honokiol, E. coli BL21(DE3) (pET28a)): 0.5 µg/mL
- MIC Polymyxin B co-application ([4]; polymyxin B combined with magnolol, E. coli BL21(DE3) (pET28a)): 1 µg/mL
- number of bacterial colonization in mouse thigh muscle [6, 11]: no significant effect

From patent US20220226260A1, “APPLICATION OF HONOKIOL AND MAGNOLOL IN PREPARATION OF MCR-1 ENZYME INHIBITOR” (priority 2019, published 2022)
